PubChem BioAssay (NCI)
Values joined by “and” are separate entries in the source; they are usually repeats but may differ in a detail not shown here. Identical values can stand only once.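 Tested at 5 concentrations; 48 h exposure; 96-well plates; endpoints linearly interpolated, else capped at highest concentration. The concentration for 50% growth inhibition is given as GI50. TGI denotes the concentration required for complete inhibition of growth.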

What was measured:
Experiment in all cases: inhibition of tumour cell growth, NCI panel, 48 h
K-562 leukemia = tested on: K-562 leukemia
DU-145 prostate = tested on: DU-145 prostate
NCI-H460 lung = tested on: NCI-H460 lung
SW-620 colon = tested on: SW-620 colon
MOLT-4 leukemia = tested on: MOLT-4 leukemia
HOP-62 NSCLC = tested on: HOP-62 NSCLC
HL-60(TB) leukemia = tested on: HL-60(TB) leukemia
A498 renal = tested on: A498 renal
SNB-75 CNS = tested on: SNB-75 CNS
COLO 205 colon = tested on: COLO 205 colon

SMILES | GI50 (K-562 leukemia) | TGI (K-562 leukemia) [µM] | GI50 (DU-145 prostate) | TGI (DU-145 prostate) | GI50 (NCI-H460 lung) | TGI (NCI-H460 lung) | GI50 (SW-620 colon) | TGI (SW-620 colon) [µM] | GI50 (MOLT-4 leukemia) | TGI (MOLT-4 leukemia) [µM] | GI50 (HOP-62 NSCLC) | TGI (HOP-62 NSCLC) [µM] | GI50 (HL-60(TB) leukemia) | TGI (HL-60(TB) leukemia) | GI50 (A498 renal) | TGI (A498 renal) | GI50 (SNB-75 CNS) | TGI (SNB-75 CNS) | GI50 (COLO 205 colon) | TGI (COLO 205 colon)
CC(C)n1cc(-c2ccc3c(c2)N(C)CC3)c2c(NS(=O)(=O)c3ccn(C)n3)ccnc21 | 79900 nM | > 100 | > 100 µM | > 100 µM | 47900 nM | > 100 µM | 69700 nM | > 100 | 65.7 µM | > 100 | > 100 µM | > 100 | 59200 nM | > 100 µM | 36.3 µM | > 100 µM | 39.9 µM | > 100 µM | > 100 µM | > 100 µM
Cc1nc2ccc(-n3ncc(C(=O)c4cc5ccccc5[nH]4)c3N)cc2[nH]1 | 3070 nM | > 100 | 13.1 µM | > 100 µM | 2390 nM | 40.6 µM | 7780 nM | > 100 | 5.99 µM | 56.1 | 4.9 µM | 51.6 | 11900 nM | 45.9 µM | 0.496 µM | 54.3 µM | 0.945 µM | > 100 µM | 4.77 µM | 29.1 µM
O=C(O)CN1C(=O)OC(c2ccccc2)C1=O (stereo not drawn) |  | > 100 |  | > 100 µM |  | > 100 µM |  | > 100 |  | > 100 |  | > 100 |  | > 100 µM |  | > 100 µM |  | > 100 µM |  | > 100 µM
CCN1C(=O)/C(=c2\sc3n(c2=O)C2C(NN=3)N(CC)C(=O)N2CC)c2ccccc21 (stereo not drawn) | 362 nM | > 100 | 0.582 µM | 29.2 µM | 402 nM | > 100 µM | 426 nM | > 100 | 0.82 µM | > 100 | 0.786 µM | > 42.6 | 303 nM | 1.01 µM | 0.181 µM | 0.697 µM | 0.189 µM | 0.856 µM | 0.468 µM | 11.3 µM
COc1ccc2c(c1)OCC1c3cc(OC)c4ccccc4c3OC21 (stereo not drawn) | 4620 nM | > 100 | 18.8 µM | > 100 µM | 4440 nM | > 100 µM | 3980 nM | > 100 | 9.82 µM | > 100 | 14.7 µM | > 100 | 2610 nM | 9.61 µM | 25 µM | > 100 µM | 11.8 µM | 47.9 µM | 7.98 µM | 33.1 µM
Nc1c(C(=O)Nc2cccc(Cl)c2)sc2nc3c(cc12)C(O)CCC3 (stereo not drawn) | 207 nM | 22.9 | 0.388 µM | 16.3 µM | 388 nM | 16.8 µM | 480 nM | > 89.3 | 0.488 µM | > 57.7 | 0.569 µM | 23.9 | 234 nM | 0.821 µM | 0.182 µM | 13.6 µM | 0.373 µM | 21.6 µM | 0.348 µM | 3.53 µM
CC1(C)N=C(N)N=C(N)N1c1ccc(OCC(=O)Nc2ccc(S(=O)(=O)F)cc2Cl)c(Cl)c1 | 594 nM | > 100 | 5.69 µM | > 100 µM | 591 nM | > 100 µM | 1080 nM | > 100 | 6.74 µM | > 100 | 7.81 µM | > 100 | 1460 nM | > 100 µM | 13.3 µM | > 100 µM | 5.72 µM | > 100 µM | 21.1 µM | > 100 µM
CN1C(=O)C(N=Nc2ccc([N+](=O)[O-])cc2)SC1=S (stereo not drawn) | 625 nM and 2170 nM | > 100 | 7.11 µM and 22.1 µM | 41.6 µM and > 100 µM | 2980 nM and 5430 nM | 24.9 µM and > 100 µM | 2530 nM and 8170 nM | > 100 | 5.82 µM and 5.81 µM | > 100 | 9.55 µM and 12.2 µM | > 100 | 678 nM and 2840 nM | 8.68 µM and 8.38 µM | 4.1 µM and 4.16 µM | 18.3 µM and 51 µM | 3.23 µM and 16.1 µM | 67.2 µM and 89.1 µM | 4 µM and 10 µM | 18 µM and 23 µM
COc1ccc(C2=C(c3ccccc3)C(=O)N3CCCC3C2)cc1 (stereo not drawn) | 89.3 nM | > 100 | 4.13 µM | > 100 µM |  | > 62.9 µM | 1240 nM | > 100 |  | > 100 | 39.8 µM | > 100 | 493 nM | > 63.6 µM | > 100 µM | > 100 µM | 18.9 µM | > 100 µM | 0.241 µM | > 100 µM
COc1cc(-c2oc3c(OC)c(O)c(OC)c(O)c3c(=O)c2OC)cc(OC)c1OC |  | > 100 |  | > 100 µM |  | > 100 µM |  | > 100 |  | > 100 |  | > 100 |  | > 100 µM |  | > 100 µM |  | 60.2 µM |  | > 100 µM
CC(C)[C@@]12C[C@@H](OC(=O)COC(=O)c3ccccc3)[C@@](C)(O1)[C@@H]1CC[C@@H](C)[C@H]1[C@@H]2OC(=O)/C=C/c1ccccc1 | 62700 nM | > 100 | > 100 µM | > 100 µM | > 100000 nM | > 100 µM | > 100000 nM | > 100 | > 100 µM | > 100 | > 100 µM | > 100 | > 75100 nM | > 100 µM | 0.153 µM | 0.529 µM | > 100 µM | > 100 µM | > 100 µM | > 100 µM
Cc1cc(O)ccc1C1(c2ccc(O)cc2C)OC(=O)c2ccccc21 | 28000 nM | > 100 | 18 µM | 31.9 µM | 19700 nM | 40.4 µM | 16900 nM | 35.8 | 23.8 µM | 58.9 | 16.7 µM | 32.5 | 22800 nM | 64.2 µM | 17.7 µM | 33.3 µM | 15.1 µM | 29.5 µM | 16.8 µM | 32.3 µM
CCN1CCN(Cc2ccc(Nc3ncc(F)c(-c4cc(F)c5nc(C)n(C(C)C)c5c4)n3)nc2)CC1 | 5850 nM | 21 | 5.75 µM | 12.2 µM | 959 nM | 12.7 µM | 192 nM | 11.9 | 0.156 µM | 9.85 | 6.68 µM | 13.8 | 2820 nM | 13.2 µM | 1.05 µM | 50 µM | 0.094 µM | 6.68 µM | 0.218 µM | 6.26 µM
Cc1[nH]c(C(=O)Nc2cccc(OC3CCNCC3)c2)c(Cl)c1Cl | 1760 nM | 4.53 | 1.89 µM | 3.52 µM | 1950 nM | 3.7 µM | 1880 nM | 3.64 | 1.94 µM | 4.12 | 1.9 µM | 4.53 | 1910 nM | 4.08 µM | 1.89 µM | 4.6 µM | 1.13 µM | 2.65 µM | 1.93 µM | 4.02 µM
Cn1c2c(c3ccccc31)CCN1C[C@@H]3CCCC[C@H]3C[C@@H]21 | 2070 nM | > 36 | 2.36 µM | 5.8 µM | 3340 nM | > 36.1 µM | 3430 nM | > 100 | 5.55 µM | > 100 | 3.32 µM | > 36.2 | 2270 nM | > 28.4 µM | 2.08 µM | 7.07 µM | 4.32 µM | > 100 µM | 2.04 µM | 4.68 µM
Cc1cc(S(=O)(=O)Nc2nc3ccccc3c(=O)n2Cc2ccco2)c(S)cc1Cl | 49700 nM | > 100 | 30.7 µM | > 100 µM | 33300 nM | > 100 µM | 30700 nM | > 100 | 18.6 µM | > 100 | 32.8 µM | 69.6 | 74300 nM | > 100 µM | 33.1 µM | > 100 µM | 97 µM | > 100 µM | > 100 µM | > 100 µM
COc1cccc2nc(Nc3cccc(NC(=O)c4ccc(N5CCN(C)CC5)c(C(F)(F)F)c4)c3)ccc12 | 1100 nM | 3.68 | 1.81 µM | 6.38 µM | 964 nM | 1.98 µM | 968 nM | 2.08 | 0.876 µM | 2.27 | 0.856 µM | 1.74 | 1070 nM | 2.35 µM | 1.8 µM | 6.46 µM | 0.695 µM | 1.68 µM | 0.909 µM | 1.83 µM
COc1ccc(OC(=O)N2C/C(=C\c3ccccc3)C(=O)/C(=C/c3ccccc3)C2)cc1 |  | 7.66 |  | 65.1 µM |  | 13.7 µM |  | 2.89 |  | 8.06 |  | 21.4 |  | 14 µM |  | 10.6 µM |  | 32.6 µM |  | 15.7 µM
C[n+]1cccc(NC(=O)c2ccc3ccc4ccc(C(=O)Nc5ccc[n+](C)c5)nc4c3n2)c1 | 2400 nM | > 100 | 0.376 µM | 15.6 µM | 149 nM | 3.42 µM | 2910 nM | > 100 | 21.3 µM | > 100 | 1.83 µM | 97.5 | 3540 nM | > 100 µM | 7.14 µM | > 28 µM | 1.15 µM | 9.9 µM | 4.35 µM | > 100 µM
